Laboratory results taken from patent publication US20240368168A1, “SARM1 ENZYME ACTIVITY INHIBITOR AND APPLICATION THEREOF” (ARTIVILA BIOPHARMA, priority 2021, published 2024).

Experiments:
[1] = target: T1, SARM1 protein in iSARM1 (HEK293) cells (Homo sapiens, UniProt Q6SZW1); assay: Inhibitory activity in inducible SARM1 overexpressing cell line, intracellular cADPR level; format: cell-based; settings: activator CZ-48 100 μM, cADPR content
T1 construct: The full-length SARM1 was synthesized into the pUC57 plasmid by WZ Biosciences Inc., and PCR was performed using pUC57-SARM1 as a DNA template
T1 sequence (Q6SZW1 28-724): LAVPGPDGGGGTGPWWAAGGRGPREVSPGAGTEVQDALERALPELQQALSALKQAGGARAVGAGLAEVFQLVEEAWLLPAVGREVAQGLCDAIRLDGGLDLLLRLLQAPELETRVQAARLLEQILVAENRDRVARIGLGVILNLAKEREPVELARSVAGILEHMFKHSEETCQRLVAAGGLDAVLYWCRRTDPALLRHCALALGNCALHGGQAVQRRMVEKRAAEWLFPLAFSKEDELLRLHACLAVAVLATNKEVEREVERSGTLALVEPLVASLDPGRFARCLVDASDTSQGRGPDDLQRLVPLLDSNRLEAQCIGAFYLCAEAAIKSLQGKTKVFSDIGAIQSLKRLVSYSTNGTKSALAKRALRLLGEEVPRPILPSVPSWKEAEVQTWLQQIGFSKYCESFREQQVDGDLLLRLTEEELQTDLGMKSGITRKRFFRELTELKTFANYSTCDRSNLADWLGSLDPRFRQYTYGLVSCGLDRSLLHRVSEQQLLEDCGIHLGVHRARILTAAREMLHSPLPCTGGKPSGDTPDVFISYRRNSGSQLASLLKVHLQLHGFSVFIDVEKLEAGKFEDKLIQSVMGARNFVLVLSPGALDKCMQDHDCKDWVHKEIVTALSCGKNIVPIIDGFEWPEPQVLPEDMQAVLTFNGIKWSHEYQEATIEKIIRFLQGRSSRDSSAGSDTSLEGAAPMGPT
Procedure: In this example, the gene sequence of SARM1 was amplified using PCR, and constructed into pInducer20-neo plasmid. pInducer20-SARM1 virus was packaged in a liposome and infected HEK293 to obtain an inducible SARM1-overexpressing cell line, which was labeled as iSARM1 (HEK293). The specific preparation was as follows:
First, a 96-well culture plate was treated with 0.05 mg/ml polylysine for 5 minutes and washed once with PBS. 3×10^4 iSARM1 (HEK293) cells were plated into the 96-well plate and cultured overnight in a 37° C. and 5% incubator. The next day, the cells were added with an inhibitor with a final concentration of 50 μM, incubated in the incubator for 1.5 hours, added with activator CZ-48 with a final concentration of 100 μM, and incubated for 16 hours. Meanwhile, the cells without adding CZ-48 or without adding drug were set as control group. Finally, the intracellular cADPR level was detected to represent the activity of SARM1, and the inhibition rate of SARM1 in cells by 50 μM inhibitor was calculated.
The cADPR measurement was performed as follows. First, the cells were washed once with PBS, and added with 150 μl of pre-cooled 0.6M perchloric acid (PCA) to quickly lyse the cells and precipitate the protein. The PCA supernatant was transferred to a 1.5 ml centrifuge tube. The protein in the culture medium was dissolved again with 100 μl of 1M NaOH. The supernatant was added with 0.5 ml of organic reagent mixture (trioctylamine:chloroform=1:3) to extract PCA from water. After sufficient shaking, the mixture was centrifuged at 12,000 rpm for 10 minutes. The solution was divided into 3 layers: the upper aqueous phase, containing the small molecules of interest; the lower organic phase, in which PCA was dissolved; and a thin protein layer between the upper and lower layers. The upper layer was transferred to a new centrifuge tube, added with 1M Tris-Mg at a ratio of 1:100 (1M Tris (pH 8.0): 1M MgCl2=9:1), added with NADase at a ratio of 1:250, and treated at 37° C. overnight to remove NAD^+ from the mixed solution. After the treatment was completed, the mixed solution was filtered using Millipore's 10 K 96-well filter plate to remove NADase.
The cADPR content in the solution was determined through Cycling analysis method. The specific steps were as follows: 20 μl of the sample to be tested or the cADPR standard was taken and added to a 96-well opaque white plate. Preparation of reaction solution: 9.6 ml of PBS (pH 7.4), 200 μl of ethanol, 150 μl of 1 mg/ml AD, 10 μl of 10 mM FMN, 5 μl of 18 mg/ml Diaphorase, 10 μl of 10 mM Resazurin, and 100 μl of 1M Nam. Half of the reaction solution was divided and added with 0.2 μg/ml cyclase. The reaction solution without adding cyclase was used as control experiment. Each sample was divided into two groups, 3 replicates in each group. The reaction solutions containing or not containing cyclase were added to each group to perform the reaction. The reaction kinetic curve within 30 minutes was recorded (Ex:Em=544/599). The average slope of the reaction was calculated. Conversion was performed according to cADPR standard to obtain the accurate cADPR content. A curve of intracellular cADPR content vs corresponding inhibitor concentration was plotted. The half inhibitory concentration of the inhibitor was calculated.

dN-SARM1 protein = target: T2, dN-SARM1 protein (Homo sapiens, UniProt Q6SZW1); assay: In vitro biochemical assay for inhibiting SARM1 enzymatic activity (IC50), PC6 fluorescence method; settings: 50 μM NAD, 50 μM PC6, 50 μM NMN activator
T2 construct: the N-terminal mitochondrial localization signal peptide of SARM1 was removed
T2 sequence (Q6SZW1 28-724): T1 sequence (Q6SZW1 28-724)
Procedure: 200 μM compound was first added to a solution of 0.05 μg/ml dN-SARM1 in 50 mM Tris-HCl (pH 7.5). Half of the mixture was added to an equal volume of a solution of 0.05 μg/ml dN-SARM1 in 50 mM Tris-HCl (pH 7.5) and mixed. The drug was diluted 6 times in this manner, with the final concentrations being 200, 100, 50, 25, 12.5, 6.25, 3.125 μM, or 200, 50, 12.5, 3.125, 0.78, 0.195, 0.049 μM, respectively. The protein without inhibitors added, being used as control group, was incubated at room temperature for 10 minutes.
50 μM NAD, 50 μM PC6 as substrate and 50 μM NMN as activator were added to the dN-SARM1 protein incubated with the inhibitor and reacted for 30 minutes at room temperature. The concentration of each component was the final concentration in the reaction system.
During the reaction, PC6 fluorescence spectrum dynamics were detected by a microplate reader, wherein the excitation wavelength and emission wavelength for detection were 390 nm and 520 nm, respectively. Finally, the reaction rate was used to express the activity of the protein, and the half inhibitory concentration was calculated. The higher the reaction rate, the stronger the protein activity, and the lower the inhibitory efficiency of the compound.
The dose curve of compounds inhibiting SARM1 enzymatic activity was determined using the above method.

SMILES | EC50 [1] | IC50 (dN-SARM1 protein)
O=C(Nc1cccc(-c2cnc3ccc(NC/C=C/c4ccccc4)cn23)c1)C1CCOCC1 [Compound 215] | < 1000 nM | 
CN(C(=O)OC(C)(C)C)c1ccc2ncc(-c3cccc(OCCOC4CCOC4)c3)n2c1 (stereo not drawn) [Compound 155] | < 1000 nM | 
COc1ccc2ncc(Nc3ccccc3)n2c1 [Compound 82, 6-methoxy-N-phenylimidazo[1,2-a]pyridin-3-amine] |  | 1000 to 10000 nM
CNc1ccc2ncc(-c3cccc4c3CN(CCOC)C4=O)n2c1 [Compound 290] |  | 1000 to 10000 nM
COCCOCCNc1cccc(-c2cnc3ccc(N4CCOCC4)cn23)c1 [Compound 229] |  | 1000 to 10000 nM
CNc1ccc2ncc(-c3ccnc4c3ccn4C)n2c1 [Compound 294] |  | 1000 to 10000 nM
CN(C(=O)OC(C)(C)C)c1ccc2ncc(-c3cccc4nccn34)n2c1 [Compound 173] |  | 1000 to 10000 nM
COc1ccc2ncc(-c3cccc4c3CNC4=O)n2c1 [Compound 235] |  | 1000 to 10000 nM
CNc1ccc2ncc(-c3ccc(OC)cc3)n2c1 [Compound 72] |  | 1000 to 10000 nM
CN(C(=O)OC(C)(C)C)c1ccc2ncc(-c3ccc4[nH]ccc4c3)n2c1 [Compound 199] |  | 1000 to 10000 nM
CNc1ccc2ncc(-c3cccc4c3CC(=O)N4C)n2c1 [Compound 296] |  | 1000 to 10000 nM
CNc1ccc2ncc(-c3cccc(C(N)=O)c3)n2c1 [Compound 64] |  | 1000 to 10000 nM
COc1ccc2ncc(-c3cccc(S(N)(=O)=O)c3)n2c1 [Compound 5] |  | 1000 to 10000 nM
O=S1(=O)NCCOCCNc2ccc3ncc(n3c2)-c2cccc1c2 [Compound 81, (E)-7-oxa-3-thia-4,10-diaza-1(3,6)-imidazo[1,2-a]pyridine-2(1,3)-benzocyclodecane 3,3-dioxide] |  | 1000 to 10000 nM
CN(C(=O)OC(C)(C)C)c1ccc2ncc(-c3cnc(N)nc3)n2c1 [Compound 194] |  | 1000 to 10000 nM
CNc1ccc2ncc(-c3cccc(S(N)(=O)=O)c3)n2c1 [Compound 62, 3-(6-(methylamino)imidazo[1,2-a]pyridin-3-yl) benzenesulfonamide] |  | 1000 to 10000 nM
CN(C(=O)OC(C)(C)C)c1ccc2ncc(-c3ccccn3)n2c1 [Compound 18] |  | 1000 to 10000 nM
CN(c1ccc2ncc(-c3ccccc3)n2c1)S(C)(=O)=O [Compound 91, N-methyl-N-(3-phenylimidazo[1,2-a]pyridin-6-yl)methanesulfonamide] |  | 1000 to 10000 nM

The next lines start with the values.

EC50 [1] | IC50 (dN-SARM1 protein) | SMILES
 | 1000 to 10000 nM | CNc1ccc2ncc(-c3ccc4cc[nH]c4n3)n2c1 [Compound 192]
 | 1000 to 10000 nM | CNc1ccc2ncc(-c3cccc(N)n3)n2c1 [Compound 180]
 | 1000 to 10000 nM | CN(C(=O)OC(C)(C)C)c1ccc2ncc(-c3cccc(S(N)(=O)=O)c3)n2c1 [Compound 61, tert-butyl methyl (3-(3-sulfamoylphenyl)imidazo[1,2-a]pyridin-6-yl)carbamate]
 | 1000 to 10000 nM | CN(C(=O)OC(C)(C)C)c1ccc2ncc(-c3cncc4[nH]cc(I)c34)n2c1 [Compound 208, tert-butyl (3-(3-iodo-1H-pyrrolo[2,3-c]pyridin-4-yl)imidazo[1,2-a]pyridin-6-yl)(methyl) carbamate]
 | < 1000 nM | CN(C(=O)OC(C)(C)C)c1ccc2ncc(C3CCCc4ncccc43)n2c1 (stereo not drawn) [Compound 311]
 | < 1000 nM | CN(C(=O)OC(C)(C)C)c1ccc2ncc(-c3ccccc3C(=O)NC3CCOCC3)n2c1 [Compound 175]
 | 1000 to 10000 nM | CNc1ccc2ncc(-c3ccc4c(c3)CNC4=O)n2c1 [Compound 266]
 | 1000 to 10000 nM | CNc1ccc2ncc(-c3cccc4c3CC(=O)N4)n2c1 [Compound 298]
 | 1000 to 10000 nM | CNc1ccc2ncc(-c3ccc4cn[nH]c4c3)n2c1 [Compound 284]
 | 1000 to 10000 nM | O=C(Cc1ccc(Cl)cc1)Nc1ccn2c(-c3ccncc3)cnc2c1 [Compound 222]
 | 1000 to 10000 nM | CC(=O)N(C)c1ccc2ncc(-c3ccccc3Cl)n2c1 [Compound 92, N-(3-(2-chlorophenyl)imidazo[1,2-a]pyridin-6-yl)-N-methylacetamide]
 | 1000 to 10000 nM | CN(C(=O)OC(C)(C)C)c1ccc2ncc(-c3cncnc3)n2c1 [Compound 283]
 | 1000 to 10000 nM | Nc1cccc(-c2cnc3ccc(N4CCCC4=O)cn23)c1 [Compound 204]
 | < 1000 nM | CN(C(=O)OC(C)(C)C)c1ccc2ncc(-c3ccnc4c3ccn4C)n2c1 [Compound 293]
 | 1000 to 10000 nM | Cc1ncsc1-c1ccc(CNC(=O)[C@@H]2C[C@@H](O)CN2C(=O)[C@@H](NC(=O)COCCOCC(=O)N(C)c2ccc3ncc(-c4ccccc4Cl)n3c2)C(C)(C)C)cc1 [Compound 117, (2S,4R)-1-((S)-12-(tert-butyl)-2-(3-(2-chlorophenyl)imidazo[1,2-a]pyridin-6-yl)-3,10-dioxo-5,8-dioxa-2,11-diazahexadecane-13-acyl)-4-hydroxy-N-(4-(4-methylthiazol-5-yl)benzyl)pyrrolidin-2-carboxamide]
 | 1000 to 10000 nM | CNc1ccc2ncc(-c3cncc4[nH]cc(I)c34)n2c1 [Compound 209]
 | < 1000 nM | Brc1cnc2ccc(NC3CCOC3)cn12 (stereo not drawn) [Compound 86, 3-bromo-N-(tetrahydrofuran-3-yl)imidazo[1,2-a]pyridin-6-amine]
 | < 1000 nM | NS(=O)(=O)c1cccc(-c2cnc3ccc(N[C@@H]4CCCNC4)cn23)c1 [Compound 89, (R)-3-(6-(piperidin-3-ylamino)imidazo[1,2-a]pyridin-3-yl)benzenesulfonamide]
 | < 1000 nM | CNc1ccc2ncc(-c3cncc4[nH]ccc34)n2c1 [Compound 258]
 | < 1000 nM | CNc1ccc2ncc(-c3ccncc3F)n2c1 [Compound 261]
 | < 1000 nM | CNc1ccc2ncc(-c3cccc4c3C(=O)NC4)n2c1 [Compound 165]
